Laboratory results taken from patent US20220054543A1, “Enteric Use of Potassium Permanganate in Humans and Animals” (priority 2020, published 2022).

Test system: common human coronaviruses (229E, NL63, OC43, and HKU1)
Assay: enteric administration to humans, treating common human coronavirus infections
Type: in vivo

Measured: effective in treating infections resulting from the common human coronaviruses

Potassium permanganate
effective: adult humans, inhalation by cold-mist inhaler or nebulizer, 3.0 ml of 1:10,000 dilution (0.1 mg/mL solution) per day for three days | adult humans, inhalation by cold-mist inhaler or nebulizer, 3.0 ml of 1:50,000 dilution (0.02 mg/mL solution) per day for three days | adult humans, inhalation by cold-mist inhaler or nebulizer, 3.0 ml of 1:100,000 dilution (0.01 mg/mL solution) per day for three days | humans, intravenous, 10.0 cc per 45.4 kg of 1:10,000 dilution (0.1 mg/mL solution) per day for three days | humans, intravenous, 10.0 cc per 45.4 kg of 1:50,000 dilution (0.02 mg/mL solution) per day for three days | humans, intravenous, 10.0 cc per 45.4 kg of 1:100,000 dilution (0.01 mg/mL solution) per day for three days | humans, oral, 1 mg/kg per day for three days | humans, oral, 1 mg/kg per day on a daily basis (prophylactic) | humans, oral, 5 mg/kg per day for three days | humans, oral, 10 mg/kg per day for three days
